Measurements reported in PMC6968521, “Novel CDKs inhibitors for the treatment of solid tumour by simultaneously regulating the cell cycle and transcription control” (Journal of Enzyme Inhibition and Medicinal Chemistry, 2020).

What was measured:
[1] = target: T1, CDK6 (Homo sapiens, UniProt Q00534); assay: Kinase inhibition assay (KinaseProfiler, Eurofins), CDK6; assay type: biochemical
T1 construct: purchased Eurofins (KinaseProfiler service)
Procedure: (§1) Kinase inhibition profiles were determined using KinaseProfiler services provided by Eurofins, and ATP concentrations used the Km of corresponding kinases.

[2] = test system: RNAPII CTD Ser2 and Ser5 phosphorylation in A549 cells; assay: Western blotting of RNAPII CTD phosphorylation, A549; assay type: cell-based, human; conditions: 24 h, vs DMSO
Procedure: (§2) Protein extraction and western blotting methods were performed as described previously. The antibodies used in this study including anti-β-actin (Santa Cruz; sc-47778), anti-p53 (CST; #9282), anti-phospho-p53^Ser15 (CST; #9284), anti-Bax (CST; #2772), anti-Bcl-2 (BD; #51-6511GR), anti-Rb (CST; #9309), anti-phospho-Rb^Ser807/811 (CST; #8516), anti-phospho-Rb^Ser780 (CST; #9307), anti-RNA polymerase II CTD (Abcam; ab817), anti-RNA polymerase II CTD^phospho S5 (Abcam; ab5131), anti-RNA polymerase II CTD^phospho S2 (Abcam; ab5095).

[3] = test system: H460 cells; assay: CCK-8 cytotoxicity assay, H460; assay type: cell-based; conditions: Homo sapiens, NCI-H460; CCK-8, 72 h incubation, three independent experiments; read-out: In vitro cell growth inhibition IC50, H460
Procedure: (§3) All the human cancer cell lines were obtained from ATCC. Cells were cultured in RPMI-1640 (BioInd) medium according to the instructions from ATCC, with the medium containing 10% FBS (BioInd), 1% antibiotics (penicillin and streptomycin) at 37 °C in an atmosphere of 5% CO2.
(§4) Cytotoxicity assay were conducted as described previously using a Cell Counting Kit-8 (CCK-8) assay (#CK04, Dojindo, Kumamoto, Japan)[37].

[4] = target: T2, CDK9 (Homo sapiens, UniProt P50750); assay: Kinase inhibition assay (KinaseProfiler, Eurofins), CDK9; assay type: biochemical
T2 construct: purchased Eurofins (KinaseProfiler service)
T2 sequence (P50750 whole entry): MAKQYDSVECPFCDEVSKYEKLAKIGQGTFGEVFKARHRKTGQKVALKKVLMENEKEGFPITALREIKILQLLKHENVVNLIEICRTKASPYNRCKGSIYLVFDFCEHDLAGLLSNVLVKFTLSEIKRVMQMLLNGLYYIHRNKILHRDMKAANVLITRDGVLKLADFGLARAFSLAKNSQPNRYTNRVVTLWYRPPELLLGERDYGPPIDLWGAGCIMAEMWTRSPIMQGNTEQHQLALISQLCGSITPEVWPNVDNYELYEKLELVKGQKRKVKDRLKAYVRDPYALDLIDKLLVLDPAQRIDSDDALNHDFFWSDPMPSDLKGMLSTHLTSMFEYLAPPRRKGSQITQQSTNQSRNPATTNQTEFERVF
T2 sequence (O60563 whole entry partner): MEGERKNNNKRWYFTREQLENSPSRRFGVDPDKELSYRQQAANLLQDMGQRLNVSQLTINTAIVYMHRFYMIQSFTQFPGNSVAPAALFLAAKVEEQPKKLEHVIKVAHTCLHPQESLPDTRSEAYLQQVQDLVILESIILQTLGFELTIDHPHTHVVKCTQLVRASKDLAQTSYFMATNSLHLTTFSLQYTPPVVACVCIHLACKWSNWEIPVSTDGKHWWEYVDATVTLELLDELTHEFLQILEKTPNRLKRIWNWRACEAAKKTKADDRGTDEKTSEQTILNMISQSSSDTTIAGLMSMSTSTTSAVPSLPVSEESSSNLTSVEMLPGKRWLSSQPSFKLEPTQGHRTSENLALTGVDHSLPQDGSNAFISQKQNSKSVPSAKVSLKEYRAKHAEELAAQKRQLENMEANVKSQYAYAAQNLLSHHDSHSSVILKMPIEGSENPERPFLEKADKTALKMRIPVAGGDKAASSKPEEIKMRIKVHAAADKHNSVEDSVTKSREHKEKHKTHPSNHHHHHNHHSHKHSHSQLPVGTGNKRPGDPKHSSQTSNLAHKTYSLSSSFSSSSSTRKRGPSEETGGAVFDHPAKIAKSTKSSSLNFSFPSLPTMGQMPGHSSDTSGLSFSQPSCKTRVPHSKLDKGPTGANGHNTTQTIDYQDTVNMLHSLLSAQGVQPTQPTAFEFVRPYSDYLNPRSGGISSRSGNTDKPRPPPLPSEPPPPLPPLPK
Procedure: as §1

[5] = test system: MCF7 cells; assay: CCK-8 cytotoxicity assay, MCF7; assay type: cell-based; conditions: Homo sapiens, CCK-8, 72 h incubation, three independent experiments, read-out: In vitro cell growth inhibition IC50, MCF7
Procedure: as §3, §4

[6] = test system: 4T1 breast cancer cells; assay: CCK-8 cytotoxicity assay, 4T1; assay type: cell-based; conditions: CCK-8, 72 h incubation, three independent experiments; read-out: In vitro cell growth inhibition IC50, 4T1
Procedure: as §3, §4

[7] = test system: A549 cells; assay: CCK-8 cytotoxicity assay, A549; assay type: cell-based; conditions: Homo sapiens, CCK-8, 72 h incubation, three independent experiments, read-out: In vitro cell growth inhibition IC50, A549
Procedure: as §3, §4

[8] = test system: H1299 cells; assay: CCK-8 cytotoxicity assay, H1299; assay type: cell-based; conditions: Homo sapiens, NCI-H1299; CCK-8, 72 h incubation, three independent experiments; read-out: In vitro cell growth inhibition IC50, H1299
Procedure: as §3, §4

[9] = target: T3, CDK4 (Homo sapiens, UniProt P11802); assay: Kinase inhibition assay (KinaseProfiler, Eurofins), CDK4; assay type: biochemical
T3 construct: purchased Eurofins (KinaseProfiler service)
T3 sequence (P11802 whole entry): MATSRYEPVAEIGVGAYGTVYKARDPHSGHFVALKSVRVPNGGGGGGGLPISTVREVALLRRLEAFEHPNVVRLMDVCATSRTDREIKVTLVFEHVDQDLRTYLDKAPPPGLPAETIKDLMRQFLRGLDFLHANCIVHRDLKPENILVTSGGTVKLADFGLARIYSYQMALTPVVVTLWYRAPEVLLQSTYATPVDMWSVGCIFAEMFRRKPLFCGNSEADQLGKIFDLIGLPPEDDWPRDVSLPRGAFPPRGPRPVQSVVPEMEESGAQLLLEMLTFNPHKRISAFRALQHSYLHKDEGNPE
T3 sequence (P30281 whole entry partner): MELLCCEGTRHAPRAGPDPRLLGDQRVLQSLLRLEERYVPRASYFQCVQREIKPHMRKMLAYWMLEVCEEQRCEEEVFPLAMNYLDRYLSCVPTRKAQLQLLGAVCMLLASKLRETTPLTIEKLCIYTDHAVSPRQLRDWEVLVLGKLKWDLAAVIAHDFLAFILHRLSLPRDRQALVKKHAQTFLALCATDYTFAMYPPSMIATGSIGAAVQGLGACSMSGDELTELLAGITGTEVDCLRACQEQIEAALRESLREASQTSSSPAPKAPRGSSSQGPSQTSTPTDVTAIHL
Procedure: as §1

[10] = test system: MCF7 cells; assay: Cell cycle assay (propidium iodide, flow cytometry), MCF7; assay type: cell-based, human; conditions: 24 h treatment, vs DMSO
Procedure: (§5) Cells were harvested and washed with phosphate buffered saline (PBS) for three times and then fixed with ice cold 75% ethanol overnight. The fixed cells were then washed with PBS and stained with propidium iodide ([…]) in the presence of RNase A (0.5 mg) for 30 min at 37 °C. The stained cells were then subjected to flow cytometry (Modfit, BD) for cell cycle analysis.

[11] = test system: A549 cells; assay: Annexin V-FITC/PI apoptosis assay, A549; assay type: cell-based, human; conditions: 48 h incubation, compared to DMSO or ribociclib
Procedure: (§6) Cells at a density of 3 × 10^5 cells/mL were seeded in six-well plates and treated with compounds at different concentrations for 48 h. The cells were then harvested and washed twice with cold PBS. Then the cells were subjected to an Annexin V/PI Apoptosis Detection kit (BD Biosciences) for staining according to manufacture’s instructions, and finally analysed by flow cytometry (Modfit, BD).

[12] = test system: T-47D cells; assay: CCK-8 cytotoxicity assay, T-47D; assay type: cell-based; conditions: Homo sapiens, T47D; CCK-8, 72 h incubation, three independent experiments; read-out: In vitro cell growth inhibition IC50, T-47D
Procedure: as §3, §4

[13] = test system: MCF7 cells; assay: Annexin V-FITC/PI apoptosis assay, MCF7; assay type: cell-based, human; conditions: 0.1 to 0.5 µM, 48 h incubation
Procedure: as §6

[14] = test system: 4T1 homograft tumours; assay: In vivo 4T1 homograft tumour model; conditions: for Tumour inhibition rate: oral gavage daily for 18 days, 4T1 homograft in BALB/c mice
Procedure: 4T1 breast cancer cells (5 × 10^4) were injected in the mammary fat pads of 6 − 8 weeks old female BALB/c mice. Once the tumours grew to a volume of approximately 100–150 mm^3, they were placed into five treatment groups (n = 3, with a total tumour number of 15). The mice were treated daily for 18 days via oral gavage. Body weights and tumour size were determined every other day. Tumour measurements were found using a digital vernier calliper, and the volumes were determined using the following calculation: (short^2) × long × 0.5. Experiments were performed under an approved IACUC protocol according to federal and institutional guidelines and regulations. Inhibition rate of tumour growth was calculated using the following formula: 100 × {1 − [(tumour volumefinal − tumour volumeinitial) for X22-treated group]/[(tumour volumefinal − tumour volumeinitial) for the vehicle-treated group]}.

[15] = test system: A549 cells; assay: Cell cycle assay (propidium iodide, flow cytometry), A549; assay type: cell-based, human; conditions: 24 h treatment, vs DMSO
Procedure: as §5

[16] = test system: RNAPII CTD Ser2 and Ser5 phosphorylation in MCF7 cells; assay: Western blotting of RNAPII CTD phosphorylation, MCF7; assay type: cell-based, human; conditions: 24 h, vs DMSO
Procedure: as §2

[17] = ATP at Km, mean of two independent experiments

T1 sequence (Q00534 whole entry): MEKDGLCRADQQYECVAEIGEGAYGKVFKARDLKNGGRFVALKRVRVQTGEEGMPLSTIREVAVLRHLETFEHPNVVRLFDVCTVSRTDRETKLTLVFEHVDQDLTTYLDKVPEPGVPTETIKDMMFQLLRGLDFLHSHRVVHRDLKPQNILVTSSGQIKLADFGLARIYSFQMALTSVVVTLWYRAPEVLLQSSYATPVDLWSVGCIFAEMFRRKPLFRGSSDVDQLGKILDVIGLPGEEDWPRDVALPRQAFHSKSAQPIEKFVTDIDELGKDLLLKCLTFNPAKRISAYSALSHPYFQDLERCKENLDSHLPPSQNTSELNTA
T1 sequence (P30281 whole entry partner): as the sequence (P30281 whole entry partner) above

## CN(C)C(=O)c1cc2cnc(Nc3ccc(CS(=O)(=O)CCCCCCN=C=S)cc3)nc2n1C1CCCC1 [X22]
[1]
  inhibition at 1 µM: 91%
[1]; [17]
  IC50: 126 ± 20.6 nM
[2]
  Concentration that effectively inhibited the phosphorylation of Ser2 and Ser5 of RNAPII CTD: 1 µM
[3]
  IC50: 1800 ± 340 nM
[4]
  inhibition at 1 µM: 98%
[4]; [17]
  IC50: 10 ± 1.3 nM
[5]
  IC50: 110 ± 70 nM
[6]
  IC50: 83 nM
[7]
  IC50: 210 ± 70 nM
[8]
  IC50: 570 ± 70 nM
[9]
  inhibition at 1 µM: 97 ± 0.4%
[9]; [17]
  IC50: 30 ± 3.9 nM
[10]
  Effect on the cell cycle: blocked the cell cycle at G2/M phase
[11]
  Proportion of apoptotic cells (Q2 late apoptotic and Q3 early apoptotic): dose-dependently increased
[12]
  IC50: 110 ± 10 nM
[13]
  Increase of the percentages of apoptotic cells compared to DMSO-treated cells: 2.2 to 3.5 fold change
[14]; 15 mg/kg
  Tumour inhibition rate: 51.8 ± 17.5%
[14]; 30 mg/kg
  Tumour inhibition rate: 65.4 ± 11.7%
[14]; 60 mg/kg
  Tumour inhibition rate: 70.3 ± 4.4%
[14]; 15, 30 or 60 mg/kg oral daily, 18 days, BALB/c mice
  Signs of toxicity (preliminary toxicity evaluation): No obvious signs of toxicity
[14]; day 18, compared with other groups
  Average tumour weight of excised tumours: obviously lighter
[14]; monitored over 18 days, among the five groups of mice
  Mouse body weight: no significant difference
[15]
  Effect on the cell cycle: blocked the cell cycle at G2/M phase
[16]
  Concentration that effectively inhibited the phosphorylation of Ser2 and Ser5 of RNAPII CTD: 0.5 µM
